Assay results reported in patent US11814372B2, “Agonists of EPHA and their uses” (CASE WESTERN RESERVE UNIVERSITY, priority 2017, dated 2023).

Columns and labels:
EphB4 = biological target: T1, EphB4 (Homo sapiens, UniProt P54760); assay: Activation of endogenous EphB4 in HEK 293 vector control cells; type: cell-based
T1 construct: host or cells: HEK 293 vector control cells
T1 sequence (P54760 16-987): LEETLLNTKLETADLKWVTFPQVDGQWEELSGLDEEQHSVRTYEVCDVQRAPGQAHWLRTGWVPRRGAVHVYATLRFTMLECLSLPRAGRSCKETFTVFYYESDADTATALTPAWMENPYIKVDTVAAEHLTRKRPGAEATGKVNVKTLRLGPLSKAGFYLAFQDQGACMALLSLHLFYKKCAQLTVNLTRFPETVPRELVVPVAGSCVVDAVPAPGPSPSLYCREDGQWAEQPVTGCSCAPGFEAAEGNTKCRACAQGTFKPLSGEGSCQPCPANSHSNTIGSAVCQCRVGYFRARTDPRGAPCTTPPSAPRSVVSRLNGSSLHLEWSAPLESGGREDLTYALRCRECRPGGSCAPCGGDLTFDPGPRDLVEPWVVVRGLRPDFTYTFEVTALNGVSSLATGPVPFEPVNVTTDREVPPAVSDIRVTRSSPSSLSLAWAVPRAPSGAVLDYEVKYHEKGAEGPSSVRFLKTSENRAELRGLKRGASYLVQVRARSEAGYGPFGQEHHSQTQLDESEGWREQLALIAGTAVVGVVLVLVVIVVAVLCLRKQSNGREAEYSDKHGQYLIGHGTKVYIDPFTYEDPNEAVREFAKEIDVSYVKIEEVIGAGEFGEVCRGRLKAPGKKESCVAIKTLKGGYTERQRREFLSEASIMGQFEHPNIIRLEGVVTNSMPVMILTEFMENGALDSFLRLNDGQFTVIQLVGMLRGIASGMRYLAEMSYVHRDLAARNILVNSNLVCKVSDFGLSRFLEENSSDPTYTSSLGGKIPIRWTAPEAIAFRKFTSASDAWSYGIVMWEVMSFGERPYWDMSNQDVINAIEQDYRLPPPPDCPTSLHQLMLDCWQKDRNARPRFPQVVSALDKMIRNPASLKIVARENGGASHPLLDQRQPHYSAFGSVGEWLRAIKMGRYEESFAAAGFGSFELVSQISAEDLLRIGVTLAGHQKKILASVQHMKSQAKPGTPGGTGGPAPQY

ERK1/2 and Akt = assay: Inhibition of ERK1/2 and Akt activation in A172-A2 glioma cells (immunoblot); type: cell-based; details: 50 μM and 100 μM, 90 minutes
Procedure: (§2) Cells were plated in 24-well dishes at a density of 100,000 cells/well and grown for 24 hours prior to stimulation with appropriate compounds and ephrins for the given amounts of time. Compounds were prepared in DMSO at 500 times the final concentrations and 0.2% DMSO was used as vehicle control. Following treatment, cells were lysed directly in SDS Gel Loading Buffer and immunoblotted as described previously. […] For immunoprecipitation, 300,000 cells/well were plated in 6-well dishes and lysed in modified RIPA Buffer (20 mM Tris-HCl pH 7.4, 20 mM NaF, 150 mM NaCl, 10% glycerol, 0.1% SDS, 0.5% DCA, 2 mM EDTA, 1% Triton X-100) following treatment. Either 10 ag of ephrin-A1-Fc, or 4 mg of EphA2 mouse monoclonal antibody (Clone D7, Millipore) were used, and mouse IgG was used as a negative control for EphA2 IP. […] We first tested this by utilizing the A172 glioma cells engineered to overexpress EphA2 receptor (A172-A2).

A172-A2 glioma cells = assay: Haptotactic cell migration toward fibronectin (modified Boyden chamber); type: cell-based; details: 4 hours
From the text: (§1) One of the well-established functions of Eph receptors is the ligand-dependent repulsive guidance of cell migration. As a ligand-mimicking agonist for EphA2, doxazosin is expected to activate EphA2 on tumor cells and repulse migrating tumor cells in vitro. To test this possibility, we first investigated the effects of doxazosin on integrin-mediated haptotactic cell migration toward fibronectin in a modified Boyden chamber cell migration assay. […] The inhibitory effects were observed when doxazosin was presented either in the bottom chamber, or in both top and bottom chambers in the Transwell assay system. […] Therefore, doxazosin can recapitulate a key function attributed to its native ligands, i.e., negative regulation of cell migration.

[1] = tested on: MDA-MB-231 breast cancer cells; assay: as above; type: cell-based; details: MDA-MB-231 cells, 4 hours
From the text: as §1

PC3-DAB2IP KD cells = assay: as above; type: cell-based, human; details: 4 hours
From the text: as §1

EphA2 [2] = biological target: T2, EphA2 (Homo sapiens, UniProt P29317); assay: EphA2 activation in A172-A2 glioma cells (immunoprecipitation, immunoblot); type: cell-based; set-up: expressed in transfected cells; host or cells: A172 (A172-A2)
T2 sequence (P29317 24-976): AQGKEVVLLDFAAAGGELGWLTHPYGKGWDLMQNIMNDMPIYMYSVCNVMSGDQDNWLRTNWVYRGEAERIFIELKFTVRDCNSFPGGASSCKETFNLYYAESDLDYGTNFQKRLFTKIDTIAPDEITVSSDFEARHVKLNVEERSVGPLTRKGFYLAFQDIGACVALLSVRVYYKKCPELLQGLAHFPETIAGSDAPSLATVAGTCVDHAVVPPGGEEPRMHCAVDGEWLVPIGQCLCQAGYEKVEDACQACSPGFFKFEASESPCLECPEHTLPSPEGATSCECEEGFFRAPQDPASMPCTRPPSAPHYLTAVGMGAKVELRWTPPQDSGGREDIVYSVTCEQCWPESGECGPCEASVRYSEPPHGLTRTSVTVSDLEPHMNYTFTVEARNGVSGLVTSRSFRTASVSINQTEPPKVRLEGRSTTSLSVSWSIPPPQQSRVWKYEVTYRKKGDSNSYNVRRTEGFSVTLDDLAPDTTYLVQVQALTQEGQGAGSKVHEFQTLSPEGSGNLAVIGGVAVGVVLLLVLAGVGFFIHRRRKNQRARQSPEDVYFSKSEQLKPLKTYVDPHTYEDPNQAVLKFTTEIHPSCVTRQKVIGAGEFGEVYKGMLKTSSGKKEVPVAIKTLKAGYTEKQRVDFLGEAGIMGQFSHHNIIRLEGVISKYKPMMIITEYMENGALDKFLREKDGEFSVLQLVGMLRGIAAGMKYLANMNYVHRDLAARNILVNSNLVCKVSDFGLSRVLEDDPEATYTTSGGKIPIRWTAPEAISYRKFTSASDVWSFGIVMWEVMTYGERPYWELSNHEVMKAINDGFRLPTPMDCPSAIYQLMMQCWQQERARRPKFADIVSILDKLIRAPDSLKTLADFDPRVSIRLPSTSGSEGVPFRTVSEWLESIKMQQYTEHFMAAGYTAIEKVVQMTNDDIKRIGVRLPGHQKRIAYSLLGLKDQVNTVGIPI
Procedure: as §2

EphA2 [3] = biological target: T2, EphA2; assay: EphA2 activation in MDA-231-A2 cells (pEphA/B immunoblot, EphA2 immunoprecipitation); type: cell-based; set-up: expressed in transfected cells; host or cells: MDA-MB-231 (MDA-231-A2), HEK 293 (HEK 293-A2), A172 (A172-A2), U373 (U373-A2)
Procedure: Cells were plated in 24-well dishes at a density of 100,000 cells/well and grown for 24 hours prior to stimulation with appropriate compounds and ephrins for the given amounts of time. Compounds were prepared in DMSO at 500 times the final concentrations and 0.2% DMSO was used as vehicle control. Following treatment, cells were lysed directly in SDS Gel Loading Buffer and immunoblotted as described previously. Immunoprecipitation and immunofluorescence staining was performed as described. For immunoprecipitation, 300,000 cells/well were plated in 6-well dishes and lysed in modified RIPA Buffer (20 mM Tris-HCl pH 7.4, 20 mM NaF, 150 mM NaCl, 10% glycerol, 0.1% SDS, 0.5% DCA, 2 mM EDTA, 1% Triton X-100) following treatment. Either […] of ephrin-A1-Fc, or […] of EphA2 mouse monoclonal antibody (Clone D7, Millipore) were used, and mouse IgG was used as a negative control for EphA2 IP. To identify small molecule agonists for EphA2, we took a structure-based in silico screening approach. […] This notion was confirmed recently by determination of the crystal structure of the EphA2/ephrin-A1 complex (FIG. 1B). The size falls in the range of common drugs, making EphA2 LBD a desirable target for drug discovery. Toward this end, we initiated in silico screening to search for small molecules that interact favorably with the ligand-binding pocket of EphA2 derived from molecular modeling before the crystal structure became available. Multiple conformations for each structure were generated with OMEGA (OpenEye) and each conformation was docked individually using DOCK. Our initial screening of over 750,000 compounds identified a number of small molecules that could potentially interact with the ligand-binding pocket. The commercially available top-scoring compounds were screened for their ability to induce EphA2 activation in MDAMB-231 breast cancer cells. Because MDA-MB-231 cells express endogenous EphA2 as well as other Eph receptors, including EphA1, we overexpressed EphA2 in order to minimize the contribution from other Eph receptors in our analysis. […] Total cell lysates were probed with a previously described antibody that recognizes the activated Eph receptors.

[4] = MDA-231-A2 cells, single 50 μM dose

COc1cc2nc(N3CCN(C(=O)C4COc5ccccc5O4)CC3)nc(N)c2cc1OC (stereo not shown) [doxazosin]
endogenous EphB4 activation (EphB4): not activated
inhibition of Akt and ERK1/2 activation (ERK1/2 and Akt): significant inhibition of Akt and ERK1/2 activation
haptotactic cell migration toward fibronectin (A172-A2 glioma cells): dose-dependent inhibition of cell migration
haptotactic cell migration toward fibronectin [1]: dose-dependent inhibition of cell migration
haptotactic cell migration toward fibronectin (PC3-DAB2IP KD cells): dose-dependent inhibition of cell migration
concentration at which EphA2 activation starts (EphA2 [2]; A172-A2 glioma cells, 90 minutes): around 25 μM
EphA2 level after treatment (EphA2 [2]; A172 cells): degradation of EphA2
EphA2 activation after phenoxybenzamine pretreatment versus no pretreatment (EphA2 [3]; MDA-231-A2 cells pretreated with 1 μM phenoxybenzamine, then 1 hour treatment): No difference in EphA2 activation
EphA2 activation, screening of top-scoring compounds (EphA2 [3]; MDA-231-A2 cells, compounds at 50 µM, 30 minutes): activated EphA2 to the greatest extent
EphA2 level after treatment (EphA2 [3]; MDA-231-A2 cells, high doses): degradation of EphA2
EphA2 activation, dose-response (EphA2 [3]; MDA-231-A2 cells, multiple doses, 30 minutes): dose-dependent manner
earliest time of significant EphA2 activation (EphA2 [3]; [4]): 5 min
time of peak EphA2 activation (EphA2 [3]; [4]): around 30 min
